From US20050049242A1 (priority 2000, published 2005)
Like-named read-outs stand apart in the source and are kept apart here.

Tests used:
[1] = test system: HIVLAI; test: Anti-HIV assay, protection from HIV-induced cell death; format: cell-based; conditions: read-out: ED50 (concentration that inhibits HIV-induced cell death by 50%); HIVLAI, MT-2 cells, 72 hr
Description: Anti-HIV assays were performed as described above. […] The compounds were then two-fold serially diluted in triplicate. To each 50 μl of diluted compound, 50 μl of HIVLAI was added and the virus-drug mixture was incubated for 1 hr at 37° C. […] Final multiplicity of infection (MOI) was 1-5. Cells were harvested to quantitate cytopathic effect using a neutral red dye assay as described.

[2] = target: HIV-1 IN (Human immunodeficiency virus type 1 group M subtype B, UniProt P12497); conditions: read-out: IC50 (IN dependent disintegration); purified HIV IN, MnCl2
[3] = test system: HIV-1NL4-3; test: Anti-HIV cytopathicity assay against parental molecular clone; format: cell-based
Description: (§1) Cloning and sequencing of virus from the HIVNL4-3 passaged in the presence of 8 μM L-chicoric acid was undertaken to determine the molecular basis for resistance to L-chicoric acid and to isolate a resistant HIV clone.
Assays, as described above, to determine the ED50 for a given compound against the molecular clone HIVNL4-3clone1-D4 and the parental clone HIVNL4-3 give an indication of the selectivity of the compound for inhibition of HIV replication through IN. Resistance to a compound, as measured by an increased ED50, by clone HIVNL4-3clone1-D4, implies selectivity of the compound for IN. Thus clone HIVNL4-3clone1-D4 can be used to screen candidate IN inhibitors for selectivity.

[4] = test system: HIV-1NL4-3clone1-D4; format: cell-based; conditions: for efficacy against the L-chicoric acid resistant clone: compared with parental HIVNL4-3
Description: as §1
This cloning was accomplished through site-directed mutagenesis introducing several silent mutations immediately upstream and downstream of the integrase gene. These mutations generated two unique restriction sites: an upstream SacII and a downstream XbaI (FIG. 15). Introduction of these mutations allowed the entire integrase gene with only minimal upstream and downstream nucleotides to be digested and “swapped” between drug-resistant and drug-sensitive clones.

[5] = test system: HIVNL4-3 passaged in the presence of 8 μM L-chicoric acid; test: Cytopathicity assay against virus passaged in 8 μM L-chicoric acid; format: cell-based, HIV; conditions: FIG. 14
Description: HIVNL4-3 plasmid (a gift from Dr. P. Krogstad, UCLA, Los Angeles, Calif.), was transfected in HeLa cells using Lipofectin® (Gibco/BRL). Excess DNA was removed by washing and cells were co-cultured with H9 cells for 18 hours. The H9 cells were removed and re-cultured in growth medium. When the culture was 100% positive for HIV antigens by indirect immunofluorescence, the virus was inoculated onto H9 cells and incubated at 37° C. for several weeks in the presence of 2 μM L-chicoric acid. When this culture was 100% positive the virus was isolated and one aliquot was passaged in a similar manner in 4 μM L-chicoric acid. Finally, virus was cultured in the presence of 8 μM L-chicoric acid and the resultant virus filter-clarified, aliquoted, and stored at −70° C.
as §1

Row | Substance | EC50 [1] | IC50 [2] | EC50 ([3]; control virus passaged without inhibitor, FIG. 14, read-out: ED50 against HIVNL4-3 control virus) | EC50 ([3]; mean of triplicate infections, read-out: ED50 HIVNL4-3) | efficacy against the L-chicoric acid resistant clone [4] | efficacy against the L-chicoric acid resistant clone ([4]; listed as L-chicoric acid) | EC50 ([4]; mean of triplicate infections, read-out: ED50 HIVNL4-3clone1-D4) | resistance of passaged virus to the compound [5]
1 | Di-3,4-dihydrodihydroxybenzylidine succinic acid [Compound 38] | 4400 nM | 858 nM | – | – | – | – | – | –
2 | Dicaffeoyl-L-tartaric acid [Compound 1] | – | – | 400 nM | 780 nM | reduced efficacy | resistant | 61200 nM | completely resistant
